Reference: the supplement of paper PMC4862054

Tested on: BT-474
Experiment: normalised viability (% of control), CellTiter-Blue; higher = more viable cells (about 100 = DMSO control)
Details: 1000 nM; incubation time: 72 h
Method in brief: (§1)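 Normalised viability is given for a single listed concentration of the series. In 384-well plates, breast cancer cell lines were incubated 72 h with compound, then read with CellTiter-Blue (2 h, 37 °C) at 560/590 nm. Per-plate scaling set vehicle to 100 and a positive kill control to 0, with Z'-factor quality control.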

SMILES | normalised viability [%]
Cn1cnc2c(F)c(Nc3ccc(Br)cc3F)c(C(=O)NOCCO)cc21 [MEK-162] | 119
COc1c(C)cnc(Cn2cnc3c(Cl)nc(N)nc32)c1C [BIIB021] | 22.9

Same assay, conditions: 10000 nM; incubation time: 72 h

SMILES | normalised viability [%]
O=c1[nH]c(=O)n([C@H]2C[C@H](O)[C@@H](CO)O2)cc1F [Floxuridine] | 94.8
O=C(c1ccc(OCCN2CCCCC2)cc1)c1c(-c2ccc(O)cc2)sc2cc(O)ccc12 [Raloxifene] | 113
COc1c(C)cnc(Cn2cnc3c(Cl)nc(N)nc32)c1C [BIIB021] | 27.3

Tested on: Hs578T
Experiment: as above
Details: 1 nM; incubation time: 72 h
Method in brief: as §1

SMILES | normalised viability [%]
CC(C)C[C@H](NC(=O)[C@H](Cc1ccccc1)NC(=O)c1cnccn1)B(O)O [Bortezomib] | 91.1
Cn1cnc2c(F)c(Nc3ccc(Br)cc3F)c(C(=O)NOCCO)cc21 [MEK-162] | 126

Same assay, conditions: 10 nM; incubation time: 72 h

SMILES | normalised viability [%]
O=c1[nH]c(=O)n([C@H]2C[C@H](O)[C@@H](CO)O2)cc1F [Floxuridine] | 127
O=C(c1ccc(OCCN2CCCCC2)cc1)c1c(-c2ccc(O)cc2)sc2cc(O)ccc12 [Raloxifene] | 112
COc1c(C)cnc(Cn2cnc3c(Cl)nc(N)nc32)c1C [BIIB021] | 95.3

Same assay, conditions: 100 nM; incubation time: 72 h

SMILES | normalised viability [%]
CC(C)C[C@H](NC(=O)[C@H](Cc1ccccc1)NC(=O)c1cnccn1)B(O)O [Bortezomib] | 2.89
Cn1cnc2c(F)c(Nc3ccc(Br)cc3F)c(C(=O)NOCCO)cc21 [MEK-162] | 102

Same assay, conditions: 1000 nM; incubation time: 72 h

SMILES | normalised viability [%]
O=c1[nH]c(=O)n([C@H]2C[C@H](O)[C@@H](CO)O2)cc1F [Floxuridine] | 58.9
CC(C)C[C@H](NC(=O)[C@H](Cc1ccccc1)NC(=O)c1cnccn1)B(O)O [Bortezomib] | 0.76
O=C(c1ccc(OCCN2CCCCC2)cc1)c1c(-c2ccc(O)cc2)sc2cc(O)ccc12 [Raloxifene] | 102
Cn1cnc2c(F)c(Nc3ccc(Br)cc3F)c(C(=O)NOCCO)cc21 [MEK-162] | 97
COc1c(C)cnc(Cn2cnc3c(Cl)nc(N)nc32)c1C [BIIB021] | 61

Same assay, conditions: 10000 nM; incubation time: 72 h

SMILES | normalised viability [%]
O=c1[nH]c(=O)n([C@H]2C[C@H](O)[C@@H](CO)O2)cc1F [Floxuridine] | 38.9
O=C(c1ccc(OCCN2CCCCC2)cc1)c1c(-c2ccc(O)cc2)sc2cc(O)ccc12 [Raloxifene] | 92.8
COc1c(C)cnc(Cn2cnc3c(Cl)nc(N)nc32)c1C [BIIB021] | 46.9

Tested on: DU-4475
Experiment: as above
Details: 0.3 nM; incubation time: 72 h
Method in brief: as §1

SMILES | normalised viability [%]
CC(C)C[C@H](NC(=O)[C@H](Cc1ccccc1)NC(=O)c1cnccn1)B(O)O [Bortezomib] | 113
Cn1cnc2c(F)c(Nc3ccc(Br)cc3F)c(C(=O)NOCCO)cc21 [MEK-162] | 100

Same assay, conditions: 3 nM; incubation time: 72 h

SMILES | normalised viability [%]
O=c1[nH]c(=O)n([C@H]2C[C@H](O)[C@@H](CO)O2)cc1F [Floxuridine] | 107
CC(C)C[C@H](NC(=O)[C@H](Cc1ccccc1)NC(=O)c1cnccn1)B(O)O [Bortezomib] | 93.4
O=C(c1ccc(OCCN2CCCCC2)cc1)c1c(-c2ccc(O)cc2)sc2cc(O)ccc12 [Raloxifene] | 105
Cn1cnc2c(F)c(Nc3ccc(Br)cc3F)c(C(=O)NOCCO)cc21 [MEK-162] | 94
COc1c(C)cnc(Cn2cnc3c(Cl)nc(N)nc32)c1C [BIIB021] | 94.8

Same assay, conditions: 10 nM; incubation time: 72 h

SMILES | normalised viability [%]
CC(C)C[C@H](NC(=O)[C@H](Cc1ccccc1)NC(=O)c1cnccn1)B(O)O [Bortezomib] | 98.8
Cn1cnc2c(F)c(Nc3ccc(Br)cc3F)c(C(=O)NOCCO)cc21 [MEK-162] | 78.1

Same assay, conditions: 30 nM; incubation time: 72 h

SMILES | normalised viability [%]
O=c1[nH]c(=O)n([C@H]2C[C@H](O)[C@@H](CO)O2)cc1F [Floxuridine] | 107
O=C(c1ccc(OCCN2CCCCC2)cc1)c1c(-c2ccc(O)cc2)sc2cc(O)ccc12 [Raloxifene] | 108
COc1c(C)cnc(Cn2cnc3c(Cl)nc(N)nc32)c1C [BIIB021] | 76.1

Same assay, conditions: 100 nM; incubation time: 72 h

SMILES | normalised viability [%]
O=c1[nH]c(=O)n([C@H]2C[C@H](O)[C@@H](CO)O2)cc1F [Floxuridine] | 69.5
O=C(c1ccc(OCCN2CCCCC2)cc1)c1c(-c2ccc(O)cc2)sc2cc(O)ccc12 [Raloxifene] | 104
COc1c(C)cnc(Cn2cnc3c(Cl)nc(N)nc32)c1C [BIIB021] | 80.8
